Article PMC5371667, “Targeting Bile Acid Receptors: Discovery of a Potent and Selective Farnesoid X Receptor Agonist as a New Lead in the Pharmacological Approach to Liver Diseases” (Frontiers in Pharmacology, 2017)

How the values were obtained:
[1] = test system: bile acid pool in plasma and gallbladder; assay: Bile acid pool in C57BL6 mice (LC-MS/MS)
Protocol: At the day of sacrifice livers, gallbladders, blood and feces were collected from mice for further analysis.
The stock solutions of the individual tauro-conjugated and un-conjugated BAs were prepared separately in methanol at a concentration of 1 mg/mL. All stock solutions were stored at –20°C. Calibration standards were prepared by combining appropriate volumes of each BA stock solution and methanol. […] Mice serum sample aliquots of 20 μL were mixed with 80 μL of CH3OH, shaken continuously, vortexed and, after centrifugation at 16000 g for 10 min, the clear supernatant was transferred to a new vial, snap frozen and lyophilized. The sample was then re-dissolved in 40% water/ 60% MeOH with 0.1% formic acid and ammonium acetate 5 mM. […] For gallbladder, 10 mg of lyophilized gallbladder were manually pestle using a mortar and dissolved in 1 mL CH3OH. After centrifugation at 16000 g for 10 min, 500 μL of supernatants were lyophilized and reconstituted in 100 μL of 40% water/60% MeOH with 0.1% formic acid and ammonium acetate 5 mM.
For LC-MS/MS analysis, chromatographic separation was carried out on the HPLC-MS system Q-TRAP 6500 LC-MS/MS System from AB Sciex equipped with Shimadzu LC-20A LC and AutoSampler system. The mixture was separated on a Synergi Fusion RP 4 m from Phenomenex (150 mm × 2.00 mm).
Tauro-conjugated and non-conjugated BAs were separated at a flow rate of 200 μL/min using a methanol–aqueous ammonium acetate (NH4OAc) gradient. Mobile phase A was water containing 5 mM ammonium acetate and 0.1% formic acid, mobile phase B was methanol, containing ammonium acetate at 5 mM and 0.1% formic acid. […] ESI was performed in negative ion mode and the ion source temperature was set at 280°C. The tune page parameters were automatically optimized injecting taurocholic acid at 1 μM as standard.

[2] = test system: FXR target genes in liver; assay: Hepatic FXR target gene expression in C57BL6 mice (RT-PCR); type: in vivo; settings: 50 mg/kg per os, p < 0.05 versus control mice
Protocol: HepG2 cells were plated at 1 × 10^6 cells/well in a six well plate. After an overnight incubation, cells were starved and then stimulated for 18 h with compound 2 at 1 μM. Total RNA was isolated from HepG2 cells or liver tissues using the TRIzol reagent according to the manufacturer’s specifications (Invitrogen). One microgram of purified RNA was treated with DNase-I and reverse transcribed with Superscript II (Invitrogen). For Real Time PCR, 10 ng template was dissolved in 25 μL containing 200 nmol/L of each primer and 12.5 μL of 2× SYBR FAST Universal ready mix (Invitrogen). All reactions were performed in triplicate, and the thermal cycling conditions were as follows: 2 min at 95°C, followed by 40 cycles of 95°C for 20 s and 60°C for 30 s in StepOnePlus (Applied Biosystems). The relative mRNA expression was calculated accordingly to the Ct method. Primers were designed using the software PRIMER3^1 using published data obtained from the NCBI database. Forward and reverse primer sequences were the following: human GAPDH, […] and […]; human BSEP, […] and […]; human OSTα, […] and […]; human SHP, […] and […]; mouse NTCP, […] and […]; mouse CYP7A1, […] and […]; mouse FGF21, […] and […]; mouse GAPDH, […] and […]; mouse BSEP, […] and […]; mouse OSTα, […] and […]; mouse SHP, […] and […].
C57BL6 male mice were from Harlan Nossan (Udine, Italy). The colonies were maintained in the animal facility of University of Perugia. Mice were housed under controlled temperatures (22 °C) and photoperiods (12:12-hour light/dark cycle), allowed unrestricted access to standard mouse chow and tap water and allowed to acclimate to these conditions for at least 5 days before inclusion in an experiment. A total number of eight mice were used in this study. The study was conducted in agreement with the Italian law and the protocol was approved by Ethical Committee of University of Perugia and by a National Committee of Ministry of Health (permission N° 42/2014 B). The health and body conditions of the animals were monitored daily by the veterinarian in the animal facility. At the day of sacrifice mice were deeply anesthetized with a mixture of […]/xylazine at a dose of 50 mg/Kg.

LXRβ = target: T1, LXRβ (Homo sapiens, UniProt P55055); assay: LXRβ transactivation on HepG2 cells (GAL4 LBD reporter); type: cell-based; settings: 10 μM
T1 construct: expressed in transfected cells; host or cells: HepG2
T1 sequence (P55055 222-460 limits assumed): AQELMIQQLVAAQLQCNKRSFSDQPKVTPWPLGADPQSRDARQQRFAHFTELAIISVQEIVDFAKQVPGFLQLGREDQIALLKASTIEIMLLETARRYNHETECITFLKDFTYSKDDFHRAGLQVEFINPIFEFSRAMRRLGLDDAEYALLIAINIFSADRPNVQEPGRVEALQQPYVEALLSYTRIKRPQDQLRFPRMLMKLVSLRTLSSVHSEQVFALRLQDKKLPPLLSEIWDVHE
Protocol: To evaluate LXRα and LXRβ mediated transactivation, HepG2 cells were transfected with 200 ng of the reporter vector p(UAS)5XTKLuc, 100 ng of a vector containing the ligand binding domain of LXRα or LXRβ cloned upstream of the GAL4-DNA binding domain (i.e., pSG5-LXRαLBD-GAL4DBD or pSG5-LXRβLBD-GAL4DBD) and 100 of pGL4.70 Renilla. At 24 h post-transfection, cells were stimulated 18 h with 10 μM compound 2 and GW3965 (GW, 10 μM) was used as positive control. To investigate the PPARα and PPARγ mediated transactivation, HepG2 cells were transiently transfected with 200 ng reporter vector p(UAS)9XTKLuc, 100 ng of a vector containing the ligand binding domain of PPARα or PPARγ cloned upstream of the GAL4-DNA binding domain (i.e., pSG5- PPARαLBD-GAL4DBD or pSG5- PPARγLBD-GAL4DBD) and 100 of pGL4.70 Renilla. For PPARα transactivation, cells were stimulated with 10 μM compound 2 and gemfibrozil (GEM, 10 μM) was used as positive control. For PPARγ transactivation, cells were stimulated with 10 μM compound 2 and rosiglitazone (ROSI, 100 nM) was used as a positive control. Luciferase activities were assayed and normalized with Renilla activities.

GST-fusion FXR-LBD = target: T2, GST-fusion FXR-LBD (Homo sapiens, UniProt Q96RI1); assay: Alpha Screen coactivator (SRC-1 peptide) recruitment assay; type: biochemical
T2 construct: 10 nM of purified GST-tagged FXR-LBD protein
T2 sequence (Q96RI1 262-486 limits assumed): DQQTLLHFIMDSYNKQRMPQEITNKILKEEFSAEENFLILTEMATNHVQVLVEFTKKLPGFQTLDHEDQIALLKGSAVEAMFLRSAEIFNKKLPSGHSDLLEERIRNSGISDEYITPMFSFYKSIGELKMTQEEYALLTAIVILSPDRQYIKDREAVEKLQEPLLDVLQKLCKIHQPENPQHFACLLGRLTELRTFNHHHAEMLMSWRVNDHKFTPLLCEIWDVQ
Protocol: Activation of FXR was determined by Alpha Screen Technology in a Coactivator Recruitment Assay. Anti-GST-coated acceptor beads were used to capture the GST-fusion FXR-LBD, whereas the biotinylated-SRC-1 peptide was captured by the streptavidin donor beads. Upon illumination at 680 nm, chemical energy is transferred from donor to acceptor beads across the complex streptavidin-donor/[…]-LBD/anti-GST-acceptor and a signal is produced. The assay was performed in white, low-volume, 384-well Optiplates (PerkinElmer) using a final volume of 25 μL containing final concentrations of 10 nM of purified GST-tagged FXR-LBD protein, 30 nM biotinylated SRC-1 peptide, 20 μg/mL anti-GST acceptor beads, and 10 μg/mL of streptavidin donor bead (PerkinElmer). The assay buffer contained 50 mM Tris (pH 7.4), 50 mM KCl and 1 mM DTT. The stimulation times with 1 μL of tested compound (dissolved in 50% DMSO/H2O) were fixed to 30 min at room temperature. The concentration of DMSO in each well was maintained at a final concentration of 2%. After the addition of the detection mix (acceptor and donor beads), the plates were incubated in the dark for 3 h at room temperature and then were read in an Envision microplate analyzer (PerkinElmer).

Q: For `CC[C@H]1[C@@H](O)[C@@H]2[C@H](CC[C@]3(C)[C@@H]([C@H](C)CCC(=O)O)CC[C@@H]23)[C@@]2(C)CC[C@H](N=[N+]=[N-])C[C@@H]12` [compound 2, 3β-azido-6α-ethyl-7α-hydroxy-5β-cholan-24-oic acid], which “blood level of tHCA” value ([1]; 50 mg/kg) is on record?
A: Its value is “significantly reduced”.

Q: And the “level of tauro-deoxycholic acid (tDCA)” value ([1]; 50 mg/kg oral)?
A: Its value is “reduction”.

Q: And the “plasmatic and gallbladder levels of tauro-cholic acid (tCA)” value ([1]; 50 mg/kg oral)?
A: Its value is “significantly reduced”.

Q: What about the “plasmatic and gallbladder levels of tauro-muricholic acid (tMu)” value ([1]; 50 mg/kg oral) of the same molecule?
A: The value was “significantly reduced”.

Q: What about the “relative hepatic mRNA expression of BSEP” value [2] of the same molecule?
A: The value was “significantly up-regulated”.

Q: And the “relative hepatic mRNA expression of CYP7A1” value [2]?
A: The value was “downregulated”.

Q: And the “relative hepatic mRNA expression of FGF21” value [2]?
A: Its value is “significantly up-regulated”.

Q: What about the “relative hepatic mRNA expression of OSTα” value [2] of the same molecule?
A: Its value is “significantly up-regulated”.

Q: And the “relative hepatic mRNA expression of SHP” value [2]?
A: The value was “significantly up-regulated”.

Q: And the LXRβ transactivation (LXRβ)?
A: The LXRβ transactivation was “unable in inducing”.

Q: And the EC50 (GST-fusion FXR-LBD; recruitment of SRC-1 co-activator peptide, Alfa Screen, Table 1)?
A: The EC50 was 610 ± 90 nM.

Q: What about the Efficacy (GST-fusion FXR-LBD; recruitment of SRC-1 co-activator peptide, Alfa Screen, Table 1, 6-ECDCA = 100) of the same molecule?
A: Its Efficacy is 90.

Q: What about the “efficacy respect to 6-ECDCA” value (GST-fusion FXR-LBD; recruitment of SRC-1 peptide) of the same molecule?
A: The value was 90%.
